Laboratory results: patent publication US20250304623A1, “PEPTIDES FOR INTRACELLULAR DELIVERY” (UNIVERSIDADE DE SANTIAGO DE COMPOSTELA, priority 2022, published 2025)
*: point of attachment. NHNH2 = NN*

Key:
Type in all cases: cell-based
[1] = tested on: Hek293 cells expressing EGFP; test: EGFP-targeting siRNA delivery (GFP silencing vs siMOCK), Hek293
Experimental: (§1) To generate an EGFP expressing HeLa cell line, HeLa cells were transfected with EGFP pDNA (pEGFP-C1, Clontech) and stable transfectants were selected with 400 μg/mL of G-418 (Millipore). Green clones were selected by epifluorescence microscopy and tested for EGFP expression stability through several passages. […] All other EGFP-expressing cell lines were obtained in a similar way from parent non-EGFP-expressing cell lines.
(§2) Cells expressing EGFP were seeded in a 96 well plate the day before the experiment at a concentration of 50,000 cell/mL (100 μL/w) in DMEM+10% FBS+1% Gln-Abt. For robotic library screening, the delivery of an EGFP-targeting siRNA (EGFP: enhanced green fluorescent protein, Ambion® Silencer® GFP Positive Control siRNA (siGFP) (AM4626)) in six different cell lines expressing EGFP was performed. […] The mixture was shaken for 30 min at room temperature (rt) before the addition to the cells. The cell medium was aspirated, and cells were washed twice with PBS. Finally, 50 μL of the solution of siRNA/amphiphile complexes were added to the cells and incubated for 4 h. After transfection, the medium was replaced by 100 μL of fresh DMEM supplemented with 10% FBS. The fluorescence knockdown was quantified after 72 h in a plate reader, by comparison with cells transfected with a non-targeting siRNA control (siMOCK, Silencer™ Negative Control No. 1 siRNA (siMOCK) (AM4611)). EGFP knockdown was compared with Lipofectamine® RNAiMAX silencing efficiency (30-60% depending on cell line, defined with a numeric value in the below tables). All experiments were done in triplicate.
(§3) Tables 1-7: RLuc (pDNA) or EGFP (mRNA) expression levels were normalized to Lipofectamine reagents (value=1) and expressed as fold-times signal increase. In the case of siRNA, the siRNA treated cells fluorescence was compared with siMOCK control fluorescence, while Cas9-RNP mediated knockout was measured against the fluorescence of untreated cells. In both siRNA and Cas9-RNP, values are expressed as % fluorescence reduction. Amphiphile concentration was 5 μM in all cases. All experiments were performed in triplicate.
(§4) Tables 20-25 show the mean (triplicates) percentage of GFP-silencing, accounted by fluorescence intensity decrease relative to a non-targeting siRNA (siMOCK) control, measured after the transfection of siRNA by different amphiphiles at different concentrations in a variety of cell lines. Background values, accounted by untreated control cells, were subtracted for processing.

[2] = tested on: HepG2 cells expressing EGFP; test: EGFP-targeting siRNA delivery (GFP silencing vs siMOCK), HepG2
Experimental: as §1, §2, §3, §4

[3] = tested on: ARPE19 cells expressing EGFP; test: Cas9-RNP delivery against EGFP (gene editing, plate reader), ARPE19
Experimental: as §1
(§5) Cells expressing EGFP were seeded in a 96 well plate the day before the experiment at a concentration of 50,000 cell/mL (100 μL/w) in DMEM+10% FBS+1% Gln-Abt. For robotic library screening, the delivery of Cas9-RNP against EGFP (RNP designed to knock-out the gene encoding for the enhanced green fluorescent protein (EGFP)) was performed. For RNP assembly, 9.2 μL of crRNA and 9.2 μL of tracrRNA were mixed in 211.6 μL of Nuclease-Free Duplex Buffer (IDT), incubated for 5 min at 95° C. and slowly cooled at rt (see I. Lostalé-Seijo, et al. Peptide/Cas9 nanostructures for ribonucleoprotein cell membrane transport and gene edition, Chem. Sci., 2017). Cas9 protein was dissolved in DMEM at a final concentration of 4 μM and equal volumes of the RNA complex and Cas9 were mixed and incubated for 5 min at rt. 75 μL of the corresponding amphiphile concentrations were added to 5 μL of RNP at 2 μM. The mixture was shaken for 30 min at room temperature before the addition to the cells. The cell medium was aspirated, and cells were washed twice with PBS. Cells were covered with 30 μL of DMEM and 20 μL of the RNP/amphiphile complexes were added to the cells (final peptide concentrations=2.5, 5 and 10 μM; final Cas9-RNP concentration=50 nM) and incubated for 4 h. After the incubation, the medium was replaced by 100 μL of fresh DMEM supplemented with 10% FBS. The total EGFP fluorescence was quantified after 72 h in a plate reader (FIG. 2, Table 1 (right) and Table 6). All experiments were done in triplicate. […]
(§6) Tables 26-31 show the mean (triplicates) percentage of gene editing, accounted by GFP fluorescence intensity decrease (% of reduction), measured after the transfection of Cas9-RNP by different amphiphiles at different concentrations in a variety of cell lines. Background values, accounted by untreated control cells, were subtracted for processing.

[4] = tested on: HepG2 cells expressing EGFP; test: Cas9-RNP delivery against EGFP (gene editing, plate reader), HepG2
Experimental: as §1, §5, §6

[5] = tested on: ARPE19 cells expressing EGFP; test: EGFP-targeting siRNA delivery (GFP silencing vs siMOCK), ARPE19
Experimental: as §1, §2, §3, §4

## Ac-RK*LRRLLRK*-NH2 (Ac-RK(NHNH2)LRRLLRK(NHNH2)-NH2; not fully specified; printed as Ac-RK*LRRLLRK*-NH2; also: K*2,K*9: native or modified lysine (ε-amide to a linker)) [Peptide 9.2]
[1]; Dodecanal, 5 μM
  percentage of GFP-silencing relative to siMOCK: 14%
[1]; Dodecanal, 15 μM
  percentage of GFP-silencing relative to siMOCK: 3%
[1]; Myristoleyl, 10 μM
  percentage of GFP-silencing relative to siMOCK: 10%
[1]; Myristoleyl, 15 μM
  percentage of GFP-silencing relative to siMOCK: −1%
[2]; Myristoleyl, 5 μM
  percentage of GFP-silencing relative to siMOCK: −22%
[2]; Myristoleyl, 15 μM
  percentage of GFP-silencing relative to siMOCK: −22%
[3]; Dodecanal, 5 μM
  percentage of gene editing, GFP fluorescence intensity decrease (% of reduction): −2%
[3]; Dodecanal, 15 μM
  percentage of gene editing, GFP fluorescence intensity decrease (% of reduction): −17%
[4]; Dodecanal, 10 μM
  percentage of gene editing, GFP fluorescence intensity decrease (% of reduction): −35%
[4]; Dodecanal, 15 μM
  percentage of gene editing, GFP fluorescence intensity decrease (% of reduction): −35%
[4]; Myristoleyl, 10 μM
  percentage of gene editing, GFP fluorescence intensity decrease (% of reduction): −17%
[5]; Dodecanal, 5 μM
  percentage of GFP-silencing relative to siMOCK: 13%
[5]; Dodecanal, 10 μM
  percentage of GFP-silencing relative to siMOCK: 34%
[5]; Dodecanal, 15 μM
  percentage of GFP-silencing relative to siMOCK: 30%
[5]; Myristoleyl, 5 μM
  percentage of GFP-silencing relative to siMOCK: 24%

## Ac-RRHK*RLK*RRLK*RL-NH2 (Ac-RRHK(NHNH2)RLK(NHNH2)RRLK(NHNH2)RL-NH2; not fully specified; printed as Ac-RRHK*RLK*RRLK*RL-NH2; also: K*4,K*7,K*11: native or modified lysine (ε-amide to a linker)) [13(Leu-His)]
[1]; Dodecanal, 5 μM
  percentage of GFP-silencing relative to siMOCK: 43%
[1]; Dodecanal, 10 μM
  percentage of GFP-silencing relative to siMOCK: 18%
[1]; Dodecanal, 15 μM
  percentage of GFP-silencing relative to siMOCK: 57%
[1]; Myristoleyl, 5 μM
  percentage of GFP-silencing relative to siMOCK: 41%
[1]; Myristoleyl, 10 μM
  percentage of GFP-silencing relative to siMOCK: 37%
[1]; Myristoleyl, 15 μM
  percentage of GFP-silencing relative to siMOCK: 9%
[1]; Oleyl, 10 μM
  percentage of GFP-silencing relative to siMOCK: 62%
[1]; Oleyl, 15 μM
  percentage of GFP-silencing relative to siMOCK: 21%
[1]; Palmitoleyl, 5 μM
  percentage of GFP-silencing relative to siMOCK: 26%
[1]; Petroselinyl, 5 μM
  percentage of GFP-silencing relative to siMOCK: 43%
[1]; Petroselinyl, 10 μM
  percentage of GFP-silencing relative to siMOCK: 43%
[1]; Petroselinyl, 15 μM
  percentage of GFP-silencing relative to siMOCK: 33%
[2]; Dodecanal, 15 μM
  percentage of GFP-silencing relative to siMOCK: 27%
[2]; Myristoleyl, 10 μM
  percentage of GFP-silencing relative to siMOCK: −3%
[2]; Palmitoleyl, 10 μM
  percentage of GFP-silencing relative to siMOCK: 12%
[2]; Palmitoleyl, 15 μM
  percentage of GFP-silencing relative to siMOCK: 25%
[2]; Petroselinyl, 10 μM
  percentage of GFP-silencing relative to siMOCK: 25%
[2]; Petroselinyl, 15 μM
  percentage of GFP-silencing relative to siMOCK: 6%
[3]; Oleyl, 10 μM
  percentage of gene editing, GFP fluorescence intensity decrease (% of reduction): −6%
[3]; Palmitoleyl, 10 μM
  percentage of gene editing, GFP fluorescence intensity decrease (% of reduction): −13%
[3]; Palmitoleyl, 15 μM
  percentage of gene editing, GFP fluorescence intensity decrease (% of reduction): 6%
[3]; Petroselinyl, 15 μM
  percentage of gene editing, GFP fluorescence intensity decrease (% of reduction): 22%
[4]; Dodecanal, 10 μM
  percentage of gene editing, GFP fluorescence intensity decrease (% of reduction): −37%
[4]; Myristoleyl, 10 μM
  percentage of gene editing, GFP fluorescence intensity decrease (% of reduction): 11%
[4]; Oleyl, 15 μM
  percentage of gene editing, GFP fluorescence intensity decrease (% of reduction): −22%
[4]; Palmitoleyl, 5 μM
  percentage of gene editing, GFP fluorescence intensity decrease (% of reduction): −36%
[4]; Palmitoleyl, 10 μM
  percentage of gene editing, GFP fluorescence intensity decrease (% of reduction): 8%
[4]; Palmitoleyl, 15 μM
  percentage of gene editing, GFP fluorescence intensity decrease (% of reduction): 13%
[4]; Petroselinyl, 5 μM
  percentage of gene editing, GFP fluorescence intensity decrease (% of reduction): −7%
[4]; Petroselinyl, 10 μM
  percentage of gene editing, GFP fluorescence intensity decrease (% of reduction): 9%
[4]; Petroselinyl, 15 μM
  percentage of gene editing, GFP fluorescence intensity decrease (% of reduction): 14%
[5]; Dodecanal, 5 μM
  percentage of GFP-silencing relative to siMOCK: 27%
[5]; Dodecanal, 10 μM
  percentage of GFP-silencing relative to siMOCK: 31%
[5]; Dodecanal, 15 μM
  percentage of GFP-silencing relative to siMOCK: 41%
[5]; Myristoleyl, 10 μM
  percentage of GFP-silencing relative to siMOCK: 25%
[5]; Myristoleyl, 15 μM
  percentage of GFP-silencing relative to siMOCK: 0%
[5]; Oleyl, 10 μM
  percentage of GFP-silencing relative to siMOCK: 26%
[5]; Oleyl, 15 μM
  percentage of GFP-silencing relative to siMOCK: 15%
[5]; Palmitoleyl, 5 μM
  percentage of GFP-silencing relative to siMOCK: 46%
[5]; Palmitoleyl, 10 μM
  percentage of GFP-silencing relative to siMOCK: 26%
[5]; Palmitoleyl, 15 μM
  percentage of GFP-silencing relative to siMOCK: 24%
[5]; Petroselinyl, 10 μM
  percentage of GFP-silencing relative to siMOCK: 34%
[5]; Petroselinyl, 15 μM
  percentage of GFP-silencing relative to siMOCK: 13%
